Results: patent EP2687213B1, “Solid forms comprising (+)-2-[1-(3-ethoxy-4-methoxyphenyl)-2-methylsulfonylethyl]-4-acetylaminoisoindoline-1,3-dione, compositions thereof, and uses thereof” (CELGENE CORPORATION, priority 2008, dated 2009)
“Also recorded” adds a separate entry of the source.

Columns and labels:
[1] = Hygroscopicity studies (DVS moisture sorption/desorption); format: physicochemical; conditions: for solid-state transformation after full adsorption/desorption cycle (XRPD): DVS, 0% to 95% RH and back; for mass change of the starting mass of the sample: RH increased from about 0% to about 95% RH, about 25 °C; for hygroscopicity: moisture sorption analysis, 0% to 95% RH
Procedure: Hygroscopicity studies. The hygroscopicity of various solid forms was studied using a Surface Measurement Systems DVS instrument. Typically a sample size of between about 10-50 mg was loaded into the DVS instrument sample pan and the sample was analyzed on a DVS automated sorption analyzer at about 25 °C. The relative humidity was increased in increments of about 10% from about 0% to about 95% RH. The relative humidity was then decreased in a similar manner to accomplish a full adsorption/desorption cycle. The mass was recorded at periodic intervals throughout the experiment.

[2] = Compression studies (2000 psi, XRPD); conditions: 2000 psi for at least one minute
[3] = Solid form stability studies (XRPD); format: physicochemical
Procedure: Stability Studies. The stabilities of Forms A, B, C and D were studied by exposing the solid samples to the stress condition of 40 °C / 75% RH for four weeks. Moreover, the stabilities of Forms A, B, C and D in different solvents were studied by equilibration in different solvents at 40 °C for four weeks. The slurries then were filtered and dried in the air. Solid samples obtained from the stability experiments were analyzed by XRPD and DSC.

[4] = Solid form interconversion studies (slurry, XRPD); format: physicochemical; conditions: EQ in acetone:ethanol (1:1) at 25 °C, at least 2 days
Procedure: Interconversion Studies. Interconversion experiments were performed by making slurries of a solid form in a saturated solvent. The slurries were agitated for at least 2 days at about 25 °C. The saturated solution was removed by filtration and the solid was dried in the air.

[5] = biological target: PDE3 from human platelets (Homo sapiens, UniProt Q14432); assay: PDE3 enzyme assay; format: biochemical; conditions: from PDE inhibition data of Table 1
PDE3 from human platelets, sequence (Q14432 whole entry): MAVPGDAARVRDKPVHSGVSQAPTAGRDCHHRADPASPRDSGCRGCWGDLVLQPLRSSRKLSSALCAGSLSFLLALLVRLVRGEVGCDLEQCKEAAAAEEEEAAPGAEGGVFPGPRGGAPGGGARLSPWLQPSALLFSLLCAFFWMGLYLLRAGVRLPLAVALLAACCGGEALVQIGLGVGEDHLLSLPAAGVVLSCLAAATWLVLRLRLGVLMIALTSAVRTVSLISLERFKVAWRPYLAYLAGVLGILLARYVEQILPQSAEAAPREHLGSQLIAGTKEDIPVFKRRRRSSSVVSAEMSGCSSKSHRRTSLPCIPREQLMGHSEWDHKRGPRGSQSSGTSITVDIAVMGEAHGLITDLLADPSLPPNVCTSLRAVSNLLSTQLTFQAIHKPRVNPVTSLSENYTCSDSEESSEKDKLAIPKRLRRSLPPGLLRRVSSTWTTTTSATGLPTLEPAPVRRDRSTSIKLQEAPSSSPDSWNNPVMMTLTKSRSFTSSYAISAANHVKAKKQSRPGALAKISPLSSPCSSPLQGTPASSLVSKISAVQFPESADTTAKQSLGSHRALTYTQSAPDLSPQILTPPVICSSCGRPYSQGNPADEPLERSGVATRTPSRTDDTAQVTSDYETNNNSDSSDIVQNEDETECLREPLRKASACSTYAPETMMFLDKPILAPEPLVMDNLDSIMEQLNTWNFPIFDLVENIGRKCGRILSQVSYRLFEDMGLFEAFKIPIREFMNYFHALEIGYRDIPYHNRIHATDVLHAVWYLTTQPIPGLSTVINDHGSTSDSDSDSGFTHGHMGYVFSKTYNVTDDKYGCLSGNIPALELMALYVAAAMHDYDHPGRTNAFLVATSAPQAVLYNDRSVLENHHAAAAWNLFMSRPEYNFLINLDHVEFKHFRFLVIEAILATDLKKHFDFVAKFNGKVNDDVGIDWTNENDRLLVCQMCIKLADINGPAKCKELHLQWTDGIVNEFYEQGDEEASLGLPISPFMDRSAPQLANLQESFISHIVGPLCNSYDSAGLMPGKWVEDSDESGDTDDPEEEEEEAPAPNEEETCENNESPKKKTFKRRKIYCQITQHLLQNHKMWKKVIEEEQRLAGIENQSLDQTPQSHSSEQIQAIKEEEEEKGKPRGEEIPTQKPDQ

[6] = biological target: T1, PDE6 from bovine retinal rod outer segments (Bos taurus, UniProt P11541+P23439); assay: PDE6 enzyme assay; format: biochemical; conditions: from PDE inhibition data of Table 1
T1 construct: PDE6 from bovine retinal rod outer segments; from tissue; host or cells: bovine retinal rod outer segments
T1 sequence (P11541 2-856 limits assumed): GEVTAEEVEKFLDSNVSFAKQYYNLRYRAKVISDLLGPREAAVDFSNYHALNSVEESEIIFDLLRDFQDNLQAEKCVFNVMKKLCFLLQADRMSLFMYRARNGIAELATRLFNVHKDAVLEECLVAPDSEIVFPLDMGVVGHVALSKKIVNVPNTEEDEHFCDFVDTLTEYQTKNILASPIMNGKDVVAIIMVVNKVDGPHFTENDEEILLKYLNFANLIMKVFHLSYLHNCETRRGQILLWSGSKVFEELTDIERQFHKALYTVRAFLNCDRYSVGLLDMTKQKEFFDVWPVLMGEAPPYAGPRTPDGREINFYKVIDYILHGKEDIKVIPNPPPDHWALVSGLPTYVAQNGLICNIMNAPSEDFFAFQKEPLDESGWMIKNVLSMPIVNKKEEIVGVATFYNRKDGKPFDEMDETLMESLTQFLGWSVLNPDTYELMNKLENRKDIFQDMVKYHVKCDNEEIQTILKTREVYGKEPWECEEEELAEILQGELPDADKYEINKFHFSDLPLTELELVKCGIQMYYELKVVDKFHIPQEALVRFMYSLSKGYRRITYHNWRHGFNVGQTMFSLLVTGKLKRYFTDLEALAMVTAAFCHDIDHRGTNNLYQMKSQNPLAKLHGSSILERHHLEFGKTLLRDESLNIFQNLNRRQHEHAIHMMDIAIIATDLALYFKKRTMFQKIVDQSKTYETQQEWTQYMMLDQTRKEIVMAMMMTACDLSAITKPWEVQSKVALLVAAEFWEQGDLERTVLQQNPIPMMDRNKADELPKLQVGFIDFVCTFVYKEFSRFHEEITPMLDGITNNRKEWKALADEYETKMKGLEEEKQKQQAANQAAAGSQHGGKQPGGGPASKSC
T1 sequence (P23439 2-850 limits assumed): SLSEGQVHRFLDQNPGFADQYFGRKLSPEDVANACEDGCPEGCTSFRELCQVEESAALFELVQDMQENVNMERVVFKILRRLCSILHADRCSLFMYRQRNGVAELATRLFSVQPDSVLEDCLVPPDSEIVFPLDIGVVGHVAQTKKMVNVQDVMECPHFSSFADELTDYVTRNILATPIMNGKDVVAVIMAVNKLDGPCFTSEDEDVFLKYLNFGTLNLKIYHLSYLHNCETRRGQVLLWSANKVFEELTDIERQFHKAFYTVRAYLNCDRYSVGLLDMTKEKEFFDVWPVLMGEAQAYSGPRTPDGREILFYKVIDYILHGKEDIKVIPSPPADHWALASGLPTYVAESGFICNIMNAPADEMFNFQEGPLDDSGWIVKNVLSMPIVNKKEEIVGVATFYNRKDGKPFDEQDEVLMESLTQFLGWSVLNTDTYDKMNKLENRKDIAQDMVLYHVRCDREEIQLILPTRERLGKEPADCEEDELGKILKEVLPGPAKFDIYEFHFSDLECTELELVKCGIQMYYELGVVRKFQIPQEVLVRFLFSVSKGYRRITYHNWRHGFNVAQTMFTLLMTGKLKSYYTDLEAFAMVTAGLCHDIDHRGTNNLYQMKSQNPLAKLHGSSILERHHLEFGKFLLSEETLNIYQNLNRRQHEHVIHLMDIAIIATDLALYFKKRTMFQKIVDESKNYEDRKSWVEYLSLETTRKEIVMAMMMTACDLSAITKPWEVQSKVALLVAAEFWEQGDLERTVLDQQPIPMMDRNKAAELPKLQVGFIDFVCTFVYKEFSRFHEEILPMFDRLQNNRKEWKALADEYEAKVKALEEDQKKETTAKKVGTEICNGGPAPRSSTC

[7] = test system: bovine PDE1; assay: PDE1 enzyme assay; format: biochemical; conditions: from PDE inhibition data of Table 1
[8] = biological target: human PDE2 (Homo sapiens, UniProt O00408); assay: PDE2 enzyme assay; format: biochemical; conditions: from PDE inhibition data of Table 1
human PDE2, sequence (O00408 whole entry): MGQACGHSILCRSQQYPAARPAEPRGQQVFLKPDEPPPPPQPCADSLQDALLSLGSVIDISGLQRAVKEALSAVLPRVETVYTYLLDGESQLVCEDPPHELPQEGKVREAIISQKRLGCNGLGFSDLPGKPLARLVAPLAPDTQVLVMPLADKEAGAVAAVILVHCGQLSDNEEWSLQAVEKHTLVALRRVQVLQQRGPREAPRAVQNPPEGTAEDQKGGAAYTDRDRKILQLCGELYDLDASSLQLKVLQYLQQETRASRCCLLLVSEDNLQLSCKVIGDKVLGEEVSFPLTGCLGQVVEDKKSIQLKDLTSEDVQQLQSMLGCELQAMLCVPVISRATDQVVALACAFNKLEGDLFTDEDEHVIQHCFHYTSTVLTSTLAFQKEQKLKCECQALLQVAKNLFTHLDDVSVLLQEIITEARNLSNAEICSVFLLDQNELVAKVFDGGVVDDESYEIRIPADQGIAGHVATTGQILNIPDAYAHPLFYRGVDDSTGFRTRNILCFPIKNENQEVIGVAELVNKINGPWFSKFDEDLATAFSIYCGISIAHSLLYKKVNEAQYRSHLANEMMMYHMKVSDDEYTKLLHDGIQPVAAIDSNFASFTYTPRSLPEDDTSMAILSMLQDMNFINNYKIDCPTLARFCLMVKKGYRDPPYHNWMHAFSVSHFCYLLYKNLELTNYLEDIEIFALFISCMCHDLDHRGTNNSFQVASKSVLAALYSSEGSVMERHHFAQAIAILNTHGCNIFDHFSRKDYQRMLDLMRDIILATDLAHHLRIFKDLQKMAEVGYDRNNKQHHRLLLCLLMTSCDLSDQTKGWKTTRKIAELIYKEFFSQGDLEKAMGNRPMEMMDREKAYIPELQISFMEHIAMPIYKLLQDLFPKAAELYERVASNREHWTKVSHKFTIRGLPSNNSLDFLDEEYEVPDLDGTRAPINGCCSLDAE

[9] = biological target: PDE5 from human platelets (Homo sapiens, UniProt O76074); assay: PDE5 enzyme assay; format: biochemical; conditions: from PDE inhibition data of Table 1
[10] = EQ in ethanol at 40 °C for 4 weeks
[11] = EQ in heptane at 40 °C for 4 weeks
[12] = EQ in toluene at 40 °C for 4 weeks
[13] = EQ in water at 40 °C for 4 weeks

CCOc1cc(C(CS(C)(=O)=O)N2C(=O)c3cccc(NC(C)=O)c3C2=O)ccc1OC (single isomer, unassigned; (+)) [Form A, (+)-2-[1-(3-ethoxy-4-methoxyphenyl)-2-methylsulfonylethyl]-4-acetylaminoisoindoline-1,3-dione]
solid-state transformation after full adsorption/desorption cycle (XRPD) [1]: none of the forms analyzed underwent substantial solid-state transformation
mass change of the starting mass of the sample [1]: about 0.4%
hygroscopicity [1]: substantially nonhygroscopic
physical stability upon compression (XRPD) [2]: substantially physically stable
Analysis by XRPD (resulting form) ([3]; 40 °C / 75% RH, 4 weeks): stable
Analysis by XRPD (resulting form) [3, 10]: stable
Analysis by XRPD (resulting form) [3, 11]: stable
Analysis by XRPD (resulting form) [3, 12]: converts to Form C
Analysis by XRPD (resulting form) [3, 13]: stable
Analysis by XRPD (resulting form) [4]: Form B

CCOc1cc(C(CS(C)(=O)=O)N2C(=O)c3cccc(NC(C)=O)c3C2=O)ccc1OC (single isomer, unassigned; (+)) [Form B, (+)-2-[1-(3-ethoxy-4-methoxyphenyl)-2-methylsulfonylethyl]-4-acetylaminoisoindoline-1,3-dione]
solid-state transformation after full adsorption/desorption cycle (XRPD) [1]: none of the forms analyzed underwent substantial solid-state transformation
mass change of the starting mass of the sample [1]: about 0.6%
hygroscopicity [1]: substantially nonhygroscopic
physical stability upon compression (XRPD) [2]: substantially physically stable
Analysis by XRPD (resulting form) ([3]; 40 °C / 75% RH, 4 weeks): stable
Analysis by XRPD (resulting form) [3, 10]: stable
Analysis by XRPD (resulting form) [3, 11]: stable
Analysis by XRPD (resulting form) [3, 12]: converts to Form C
Analysis by XRPD (resulting form) [3, 13]: stable

CCOc1cc(C(CS(C)(=O)=O)N2C(=O)c3cccc(NC(C)=O)c3C2=O)ccc1OC (single isomer, unassigned; (+)) [Form C, (+)-2-[1-(3-ethoxy-4-methoxyphenyl)-2-methylsulfonylethyl]-4-acetylaminoisoindoline-1,3-dione]
solid-state transformation after full adsorption/desorption cycle (XRPD) [1]: none of the forms analyzed underwent substantial solid-state transformation
mass change of the starting mass of the sample [1]: about 0.5%
hygroscopicity [1]: substantially nonhygroscopic
physical stability upon compression (XRPD) [2]: substantially physically stable
Analysis by XRPD (resulting form) ([3]; 40 °C / 75% RH, 4 weeks): stable
Analysis by XRPD (resulting form) [3, 10]: stable
Analysis by XRPD (resulting form) [3, 11]: stable
Analysis by XRPD (resulting form) [3, 12]: stable
Analysis by XRPD (resulting form) [3, 13]: stable
Analysis by XRPD (resulting form) [4]: Form C

CCOc1cc(C(CS(C)(=O)=O)N2C(=O)c3cccc(NC(C)=O)c3C2=O)ccc1OC (single isomer, unassigned; (+)) [Form D, (+)-2-[1-(3-ethoxy-4-methoxyphenyl)-2-methylsulfonylethyl]-4-acetylaminoisoindoline-1,3-dione]
solid-state transformation after full adsorption/desorption cycle (XRPD) [1]: none of the forms analyzed underwent substantial solid-state transformation
mass change of the starting mass of the sample [1]: about 1.5%
hygroscopicity [1]: slightly hygroscopic
physical stability upon compression (XRPD) [2]: substantially physically stable
Analysis by XRPD (resulting form) ([3]; 40 °C / 75% RH, 4 weeks): stable
Analysis by XRPD (resulting form) [3, 10]: converts to Form B
Analysis by XRPD (resulting form) [3, 11]: converts to Form B
Analysis by XRPD (resulting form) [3, 12]: converts to Form C
Analysis by XRPD (resulting form) [3, 13]: converts to Form B
Analysis by XRPD (resulting form) [4]: Form B

CCOc1cc(C(CS(C)(=O)=O)N2C(=O)c3cccc(NC(C)=O)c3C2=O)ccc1OC (single isomer, unassigned; (+)) [Form E, (+)-2-[1-(3-ethoxy-4-methoxyphenyl)-2-methylsulfonylethyl]-4-acetylaminoisoindoline-1,3-dione]
solid-state transformation after full adsorption/desorption cycle (XRPD) [1]: none of the forms analyzed underwent substantial solid-state transformation
mass change of the starting mass of the sample [1]: about 5.1%
hygroscopicity [1]: hygroscopic
Analysis by XRPD (resulting form) [4]: Form B

CCOc1cc(C(CS(C)(=O)=O)N2C(=O)c3cccc(NC(C)=O)c3C2=O)ccc1OC (single isomer, unassigned; (+)) [Form F, (+)-2-[1-(3-ethoxy-4-methoxyphenyl)-2-methylsulfonylethyl]-4-acetylaminoisoindoline-1,3-dione]
solid-state transformation after full adsorption/desorption cycle (XRPD) [1]: none of the forms analyzed underwent substantial solid-state transformation
mass change of the starting mass of the sample [1]: about 0.2%
hygroscopicity [1]: substantially nonhygroscopic
Analysis by XRPD (resulting form) [4]: stable; also recorded: Form F

CCOc1cc(C(CS(C)(=O)=O)N2C(=O)c3cccc(NC(C)=O)c3C2=O)ccc1OC (single isomer, unassigned; (+)) [Form G, (+)-2-[1-(3-ethoxy-4-methoxyphenyl)-2-methylsulfonylethyl]-4-acetylaminoisoindoline-1,3-dione]
solid-state transformation after full adsorption/desorption cycle (XRPD) [1]: none of the forms analyzed underwent substantial solid-state transformation
mass change of the starting mass of the sample [1]: about 0.4%
hygroscopicity [1]: substantially nonhygroscopic
Analysis by XRPD (resulting form) [4]: converts to Form B

CCOc1cc([C@H](CS(C)(=O)=O)N2C(=O)c3cccc(NC(C)=O)c3C2=O)ccc1OC [Compound B]
PDE Specificity Ratio PDE4/PDE3 [5]: >45 fold
PDE Specificity Ratio PDE4/PDE6 [6]: >250 fold
PDE Specificity Ratio PDE4/PDE1 [7]: >50 fold
PDE Specificity Ratio PDE4/PDE2 [8]: >260 fold
PDE Specificity Ratio PDE4/PDE5 [9]: >39000 fold
